This note sets out measurements from PubChem BioAssay (NCI).

Values joined by “and” are separate entries in the source; they are usually repeats but may differ in a detail not shown here. Equal entries are not always repeated.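 Results reflect a 48-hour exposure of cells in 96-well plates to compound at five concentrations. Here, GI50 denotes the concentration required for 50% inhibition of growth. TGI marks complete inhibition of growth.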 Where only a bound is given, the exact number is not on record here.

Some test systems named below: RXF-631 renal; LXFL 529 NSCLC; HOP-18 NSCLC; T-47D breast; HS 578T breast; MDA-N; NCI/ADR-RES ovarian; DU-145 prostate; BT-549 breast.
Experiment in all cases: NCI-60 cell line screen, 48 h

`Cc1c(C(=O)C/C(=N/NC(=O)C[N+](C)(C)C)C(=O)Nc2ccc(Cl)cc2)[n+](=O)c2ccccc2n1O`: the TGI with RXF-631 renal, with LXFL 529 NSCLC and with HOP-18 NSCLC was greater than 100 µM each time.

In the test with HOP-18 NSCLC, `CN(C)CCNC(=O)c1cccc2ccc(-c3ccncc3)nc12` showed a TGI of 9.18 µM.

Consider `CCOC(=S)SSSC(=S)OCC`, for which the TGI in the test on T-47D breast was 60 µM; in the test with HS 578T breast, greater than 100 µM; with MDA-N, greater than 100 µM; in the test with NCI/ADR-RES ovarian, greater than 100 µM; with DU-145 prostate it was greater than 100 µM.

As for `Cc1ccc(NC(=O)CC(=O)n2nc(C)c(N=Nc3ccccc3C(=O)O)c2C)cc1`, the TGI in the test on RXF-631 renal and with LXFL 529 NSCLC was greater than 100 µM in each case.

With `CCOCC(=O)N[C@H]1CCc2cc(OC)c(OC)c(OC)c2-c2ccc(OC)c(=O)cc21`, the TGI is greater than 100 µM with T-47D breast; greater than 100 µM in the test with HS 578T breast; less than 0.0196 µM in the test with MDA-N; greater than 100 µM with LXFL 529 NSCLC; 0.107 µM in the test with DU-145 prostate; greater than 100 µM in the test on HOP-18 NSCLC.

Regarding `O=C1c2cccc([N+](=O)[O-])c2C(=O)N1c1ncn[nH]1`, the TGI with T-47D breast was greater than 100 µM; in the test with HS 578T breast it was greater than 100 µM; with BT-549 breast, 90 µM; with MDA-N, greater than 100 µM; in the test on NCI/ADR-RES ovarian it was greater than 100 µM; in the test with DU-145 prostate, greater than 100 µM.

On to `CCCC1N2CCCCC2[C@@H]2c3[nH]c4ccccc4c3CCN12` (stereo partly drawn), for which the TGI in the test with LXFL 529 NSCLC and with HOP-18 NSCLC was greater than 100 µM in each case.

On to `O=C(O)C(CS)Nc1c2ccccc2nc2ccccc12` (stereo not drawn), for which the TGI in the test on LXFL 529 NSCLC is greater than 100 µM.

As to `O=C(O)C(=Cc1ccc(-c2ccccc2)cc1)C(=O)O`, the TGI in the test on T-47D breast is 34 µM; in the test on HS 578T breast, greater than 100 µM; with BT-549 breast, 29.4 µM; with MDA-N, greater than 100 µM; in the test with NCI/ADR-RES ovarian it was greater than 94 µM; with DU-145 prostate, greater than 39 µM.

`O=C(CC1(O)C(=O)Nc2ccccc21)c1ccncc1` (stereo not drawn): the TGI in the test with LXFL 529 NSCLC is greater than 100 µM.

On to `O=C(N/C(=C\c1cccc([N+](=O)[O-])c1)c1nc2ccc([N+](=O)[O-])cc2[nH]1)c1ccccc1`, for which the TGI with RXF-631 renal is greater than 100 µM; in the test on LXFL 529 NSCLC, 75.1 µM.

Take `COc1cc(C(=O)CBr)c(OC)cc1C`: the TGI in the test on T-47D breast, in the test on HS 578T breast, in the test on BT-549 breast, with MDA-N, with NCI/ADR-RES ovarian and in the test on DU-145 prostate was greater than 100 µM throughout.

In the case of `O=C(O)c1nn(-c2ccccc2-c2n[nH]c(=O)[nH]c2=O)c(=O)[nH]c1=O`, the TGI with T-47D breast, in the test with HS 578T breast, in the test with BT-549 breast, in the test with MDA-N, in the test on NCI/ADR-RES ovarian and in the test with DU-145 prostate was greater than 100 µM in each case.

As to `O=C1C(Cl)=C(NCCN2CCOCC2)C(=O)c2ncccc21`, the values for the GI50 in the test on T-47D breast, in the test on HS 578T breast and in the test on NCI/ADR-RES ovarian were 1.83 µM, 3.39 µM and 4.6 µM, respectively. Moreover, the TGI in the test with T-47D breast was 5.74 µM and 4.49 µM; in the test with HS 578T breast it was 4.97 µM and 19 µM; in the test on BT-549 breast it was 3.21 µM and 3.03 µM; with MDA-N, 0.389 µM; in the test on NCI/ADR-RES ovarian, 30.8 µM; with DU-145 prostate it was 3.11 µM and 3.14 µM.

For the compound `CC1CN1C(=O)NCCCCCCNC(=O)N1CC1C` (stereo not drawn), the TGI in the test on T-47D breast, in the test on HS 578T breast, with BT-549 breast, with MDA-N, with NCI/ADR-RES ovarian and with LXFL 529 NSCLC was greater than 100 µM throughout. Besides, the TGI in the test on DU-145 prostate and in the test with HOP-18 NSCLC was greater than 100 µM in each case.

In turn, `CC1OC(OC2C(OC(=O)[C@]34CCC(C)(C)CC3C3=CCC5[C@@]6(C)C[C@H](O)[C@H](OC7OC(CO)C(O)C(O)C7N)[C@@](C)(C(=O)O)C6CC[C@@]5(C)C3(C)CC4)OCC(O)C2O)C(O)C(O)C1OC1OCC(O)C(O)C1O` (stereo partly drawn) yielded a TGI with HOP-18 NSCLC greater than 100 µM.

Turning to `C[C@@H]1OC(=O)N2CCCC(=C3SCCCS3)C12` (stereo partly drawn), the TGI with LXFL 529 NSCLC and in the test with HOP-18 NSCLC was greater than 100 µM throughout.

For `CC(C)(C)c1cc(CCC(=O)Nc2ccc(Cl)cc2)nc(NC#N)n1`, the TGI in the test with LXFL 529 NSCLC and in the test on HOP-18 NSCLC was greater than 100 µM throughout.

For the compound `Nc1c(-c2ccc(Cl)cc2)[n+]([O-])c2ccccc2[n+]1[O-]`, the TGI with LXFL 529 NSCLC and in the test on HOP-18 NSCLC was greater than 100 µM throughout.

For the compound `CC(=O)O[C@H]1C(=O)[C@@]2(C)C(C(OC(=O)c3ccccc3)[C@]3(O)CC(OC(=O)[C@H](OC(=O)CCC(=O)O)C(NC(=O)c4ccccc4)c4ccccc4)C(C)=C1C3(C)C)C1(OC(C)=O)COC1C[C@@H]2O` (stereo partly drawn), the TGI with T-47D breast is greater than 100 µM; with HS 578T breast, 3.1 µM and 1.57 µM; in the test with MDA-N, less than 0.01 µM; in the test on NCI/ADR-RES ovarian, 61.9 µM and > 72.3 µM; in the test with DU-145 prostate, 0.0715 µM and 0.193 µM. The GI50 in the test on NCI/ADR-RES ovarian is 8.73 µM and 17.7 µM; in the test with DU-145 prostate, < 0.01 µM and 0.0319 µM.

For `CC(C)(CO)N1CCN(C(=S)Nc2ccccc2)CC1`, the TGI in the test with T-47D breast, with HS 578T breast, in the test on BT-549 breast, in the test with MDA-N and in the test on NCI/ADR-RES ovarian was greater than 100 µM each time.

Regarding `CCN(CC)C(c1ccc(N(C)C)cc1)C(c1ccc(N(C)C)cc1)N(CC)CC` (stereo not drawn), the TGI in the test with RXF-631 renal and in the test with LXFL 529 NSCLC was greater than 73 µM each time.

Take `C/C(O)=C(\N=O)C(=O)Nc1ccc(Cl)cc1Cl`: the TGI in the test on LXFL 529 NSCLC and in the test with HOP-18 NSCLC was greater than 100 µM throughout.

Regarding `O=C(O)CCSC(=O)Nc1ccc([N+](=O)[O-])cc1`, the TGI in the test with LXFL 529 NSCLC is greater than 100 µM.

Consider `N#CSC1CCCCNC1=O` (stereo not drawn), for which the TGI in the test on T-47D breast came out at 52.5 µM; with HS 578T breast, 50.4 µM; in the test with BT-549 breast, 21.5 µM; with NCI/ADR-RES ovarian, 29.1 µM; with DU-145 prostate it was 32.8 µM.

For the compound `O=C(O)CCNC1CCCCC1`, the GI50 in the test with T-47D breast, with HS 578T breast, with BT-549 breast, in the test on NCI/ADR-RES ovarian and with DU-145 prostate was greater than 100 µM each time. The TGI with T-47D breast, with HS 578T breast, with BT-549 breast, in the test with NCI/ADR-RES ovarian and in the test on DU-145 prostate was greater than 100 µM throughout.

On to `CC/C=C\C[C@@H](O)C/C=C1/C(=O)C=C[C@H]1C/C=C\CCCC(=O)OC`, for which the GI50 with T-47D breast is 4.05 µM; with HS 578T breast, 4.06 µM; in the test on BT-549 breast it was 2.94 µM; in the test with NCI/ADR-RES ovarian, 3.38 µM; in the test on DU-145 prostate, 3.33 µM. Besides, the TGI in the test on T-47D breast came out at 19 µM; in the test on HS 578T breast, 26.2 µM; with BT-549 breast, 8.81 µM; with NCI/ADR-RES ovarian it was 19.7 µM; with DU-145 prostate, 12.3 µM.
